Data: US20230293464A1, “TREATMENT OF PANCREATIC DUCTAL ADENOCARCINOMA WITH MIRDAMETINIB” (SpringWorks Therapeutics Inc., priority 2022, published 2023)

Key:
PDAC cell lines = assay: Autophagic flux, mCherry-EGFP-LC3B autophagy reporter (flow cytometry, confocal imaging); type: cell-based; settings: panel of PDAC cell lines, 24-hours treatment
Description: Autophagic flux was determined using flow cytometry. […] Live cell imaging was performed using confocal microscopy. FIG. 1D indicates the threshold of fluorescent intensity was set to include puncta and exclude cytosolic green and background fluorescence. Green and red puncta were quantified from FIG. 1C and plotted.

PDAC cells = assay: Vacuole formation on apilimod treatment; type: cell-based; settings: FIG. 3A
From the text: Cells were fixed and stained with EEA1 and LAMP1 antibodies and analyzed with confocal microscopy.

SMILES | autophagic flux (PDAC cell lines) | vacuole formation (PDAC cells)
O=C(NOC[C@H](O)CO)c1ccc(F)c(F)c1Nc1ccc(I)cc1F (single isomer, unassigned) [mirdametinib] | substantially induced autophagic flux | –
Cc1cccc(/C=N/Nc2cc(N3CCOCC3)nc(OCCc3ccccn3)n2)c1 [apilimod] | – | dose-dependent vacuole formation
